ChEMBL document CHEMBL4819077, “Design, synthesis, and biological evaluation of diosgenin-indole derivatives as dual-functional agents for the treatment of Alzheimer's disease” (Eur J Med Chem, 2021)
Active and inactive are the calls of the source. The calls are words filed in the database; no cut-off is given here.

Tests used:
SH-SY5Y [1] = assay: Neuroprotection against H202-induced human SH-SY5Y cell damage assessed as decrease in ROS accumulation at 10 uM incubated for 2 hr before H202 challenge and measured after 24 hrs by DCFDA staining based fluorescence microscopy; assay type: functional; settings: time 26.0 hrs
SH-SY5Y [2] = assay: Neuroprotection against H202-induced cytotoxicity in human SH-SY5Y cells assessed as increase in cell viability at 100 uM incubated for 2 hr before H202 challenge and measured after 24 hrs by MTT assay; assay type: functional, cell-based; settings: time 26.0 hrs
[3] = Acute toxicity in ICR mouse assessed as mortality at 500 mg/kg, po administered as single dose measured after 14 days; assay type: organism-based; settings: in vivo, 336 h, time 14 day
[4] = Acute toxicity in ICR mouse assessed as abnormalities in kidney at 500 mg/kg, po administered […] 14 days by HE staining based assay; assay type: organism-based; settings: in vivo, 336 h, time 14 day
SH-SY5Y [5] = assay: Neuroprotection against Abeta-induced oxidative stress in human SH-SY5Y cells assessed as cell protection at 10 uM incubated for 2 hr before Abeta(1-42) challenge and measured after 24 hrs by MTT assay; assay type: functional; settings: time 26 hrs
SH-SY5Y [6] = assay: Neuroprotection against 6-OHDA-induced cytotoxicity in human SH-SY5Y cells assessed as increase in cell viability at 100 uM incubated for 2 hr before 6-OHDA challenge and measured after 24 hrs by MTT assay; assay type: functional, cell-based; settings: time 26.0 hrs
[7] = Acute toxicity in ICR mouse assessed as body weight loss at 500 mg/kg, po administered as single dose measured after 14 days; assay type: organism-based; settings: in vivo, 336 h, time 14 day
SH-SY5Y [8] = assay: Neuroprotection against 6-OHDA-induced cytotoxicity in human SH-SY5Y cells assessed as increase in cell viability upto 50 uM incubated for 2 hr before 6-OHDA challenge and measured after 24 hrs by MTT assay; assay type: functional, cell-based; settings: dose microM <=50, time 2.0 hrs
Mus musculus [9] = assay: Neuroprotection against icv infused amyloid beta (1 to 42)-induced ICR mouse model of Alzheimer's disease assessed as rescue of pyknotic nucleus in hippocampal at to 4 to 20 mg/kg, po administered daily for 7 days by HE staining; assay type: functional, organism-based; settings: dose 4-20 mg/kg, time 7.0 day
SH-SY5Y [10] = assay: Neuroprotection against Abeta-induced cytotoxicity in human SH-SY5Y cells assessed as increase in cell viability at 100 uM incubated for 2 hr before Abeta(1-42) challenge and measured after 24 hrs by MTT assay; assay type: functional, cell-based
SH-SY5Y [11] = assay: Neuroprotection against 6-OHDA-induced oxidative stress in human SH-SY5Y cells assessed as cell protection at 10 uM preincubated for 2 hr before 6-OHDA challenge and measured after 24 hrs by MTT assay; assay type: functional; settings: time 26 hrs
SH-SY5Y [12] = assay: Neuroprotection against Abeta-induced cytotoxicity in human SH-SY5Y cells assessed as increase in cell viability upto 50 uM incubated for 2 hr before Abeta(1-42) challenge and measured after 24 hrs by MTT assay; assay type: functional, cell-based; settings: dose microM <=50, time 2.0 hrs
[13] = Acute toxicity in ICR mouse assessed as abnormalities in heart at 500 mg/kg, po administered […] 14 days by HE staining based assay; assay type: organism-based; settings: in vivo, 336 h, time 14 day
SH-SY5Y [14] = assay: Cytotoxicity against human SH-SY5Y cells assessed as reduction in cell viability measured after 24 hrs by MTT assay; assay type: cell-based
[15] = Acute toxicity in ICR mouse assessed as abnormal behaviors at 500 mg/kg, po administered as single dose measured after 14 days; assay type: organism-based; settings: in vivo, 336 h, time 14 day
[16] = Acute toxicity in ICR mouse assessed as abnormalities in liver at 500 mg/kg, po administered […] 14 days by HE staining based assay; assay type: organism-based; settings: in vivo, 336 h, time 14 day
Mus musculus [17] = assay: Improvement in learning and spatial memory in icv infused amyloid beta (1 to 42)-induced ICR mouse model of Alzheimer's disease assessed as improved target quadrant exploration time at 4 to 20 mg/kg, po administered daily for 7 days starting from 7 days post surgery by Morris water maze test; assay type: functional, organism-based; settings: dose 4-20 mg/kg, time 7.0 day
SH-SY5Y [18] = assay: Neuroprotection against H202-induced oxidative stress in human SH-SY5Y cells assessed as cell protection at 10 uM preincubated for 2 hr before H202 challenge and measured after 24 hrs by MTT assay; assay type: functional
SH-SY5Y [19] = assay: Neuroprotection against H202-induced cytotoxicity in human SH-SY5Y cells assessed as increase in cell viability upto 50 uM incubated for 2 hr before H202 challenge and measured after 24 hrs by MTT assay; assay type: functional, cell-based; settings: dose microM <=50, time 2.0 hrs
[20] = Acute toxicity in ICR mouse assessed as abnormalities in spleen at 500 mg/kg, po administered […] 14 days by HE staining based assay; assay type: organism-based; settings: in vivo, 336 h, time 14 day
Mus musculus [21] = assay: Neuroprotection against icv infused amyloid beta (1 to 42)-induced ICR mouse model of Alzheimer's disease assessed as rescue of decrease neuronal cells in hippocampal at to 4 to 20 mg/kg, po administered daily for 7 days by HE staining; assay type: functional, organism-based; settings: dose 4-20 mg/kg, time 7.0 day
[22] = Acute toxicity in ICR mouse assessed as abnormalities in lung at 500 mg/kg, po administered […] 14 days by HE staining based assay; assay type: organism-based; settings: in vivo, 336 h, time 14 day
SH-SY5Y [23] = assay: Neuroprotection against H202-induced human SH-SY5Y cell damage assessed as decrease in ROS accumulation at 50 uM incubated for 2 hr before H202 challenge and measured after 24 hrs by DCFDA staining based fluorescence microscopy; assay type: functional; settings: time 26.0 hrs
SH-SY5Y [24] = assay: Neuroprotection against 6-OHDA-induced oxidative stress in human SH-SY5Y cells assessed as cell protection at 1 mM preincubated for 2 hr before 6-OHDA challenge and measured after 24 hrs by MTT assay; assay type: functional; settings: time 26 hrs
SH-SY5Y [25] = assay: Neuroprotection against H202-induced oxidative stress in human SH-SY5Y cells assessed as cell protection at 1 mM preincubated for 2 hr before H202 challenge and measured after 24 hrs by MTT assay; assay type: functional; settings: time 26 hrs
SH-SY5Y [26] = assay: Neuroprotection against Abeta-induced oxidative stress in human SH-SY5Y cells assessed as cell protection at 1 mM incubated for 2 hr before Abeta(1-42) challenge and measured after 24 hrs by MTT assay; assay type: functional; settings: time 26 hrs

With COc1ccc2[nH]cc(CCNC(=O)Oc3ccc4c(c3)CC[C@@H]3[C@@H]4CC[C@]4(C)[C@@H]5[C@H](C[C@@H]34)O[C@]3(CC[C@@H](C)CO3)[C@H]5C)c2c1 the Activity (SH-SY5Y [1]) was “Active”, the Activity (SH-SY5Y [2]) was “inactive” and the Activity [3] was “Non-Toxic”. For the same compound, the Activity [4] was “Non-Toxic”, the Activity (SH-SY5Y [5]) was 54.4% and the Activity (SH-SY5Y [6]) was “inactive”. The Activity [7] was “Non-Toxic”, the Activity (SH-SY5Y [8]) was “Active” and the Activity (Mus musculus [9]) was “Active”. For the same compound, the Activity (SH-SY5Y [10]) was “inactive”, the Activity (SH-SY5Y [11]) was 38.4% and the Activity (SH-SY5Y [12]) was “Active”. The Activity [13] was “Non-Toxic”, the Activity (SH-SY5Y [14]) was “Non-Toxic” and the Activity [15] was “Non-Toxic”. For the same compound, the Activity [16] was “Non-Toxic”, the Activity (Mus musculus [17]) was “Active” and the Activity (SH-SY5Y [18]) was 52.9%. For the same compound, the Activity (SH-SY5Y [19]) was “Active”, the Activity [20] was “Non-Toxic” and the Activity (Mus musculus [21]) was “Active”. For the same compound, the Activity [22] was “Non-Toxic” and the Activity (SH-SY5Y [23]) was “inactive”.

In the case of CC(=O)N[C@@H](CS)C(=O)O [ACETYLCYSTEINE], the Activity (SH-SY5Y [24]) is reported as 83.59%, the Activity (SH-SY5Y [25]) is reported as 84.73% and the Activity (SH-SY5Y [26]) is reported as 67.6%.
